Reference: US20230381146A1, “SUBSTITUTED HETEROARYL COMPOUNDS AND USE THEREOF” (HELIOS HUAMING BIOPHARMA CO., LTD., priority 2020, published 2023)

biological target: PAD4 (Homo sapiens, UniProt Q9UM07); test: PAD4 Inhibition Assay (citrulline formation from BAEE substrate); type: biochemical; settings: PAD4 75 nM, 60 minute preincubation at 37° C., 90 minutes
Method: PAD4 was diluted to 75 nM in Assay Buffer (50 mM Tris-HCl, 2 mM CaCl2), 2 mM DTT, 1 mM PMSF in H2O) and added to wells with various concentrations of compound or DMSO vehicle in Eppendorf tubes (final volume was 100 μL). Following a 60 minute preincubation at 37° C., the reaction was initiated by the addition of 10 μL substrate (22 mM BAEE in H2O) at 37° C. The reaction was stopped after 90 minutes by the addition of 25 μL HClO4 (5 M), 125 μL Reagent A (10 g/L diacetyl monoxime and 15 g/L NaCl in H2O) and 250 μL Reagent B (10 mg/mL antipyrine and 1.0 mg/mL FeCl3 diluted in detection buffer containing 25% H2SO4, 25% H3PO4 and 50% H2O) in sequence. This assay was quenched in an ice-bath for 5 minutes after boiling for 30 minutes. The citrulline formation was measured in fluorescence (κ=465 nm) on microplate reader and the IC50 was calculated by GraphPad Prism.

Chain of PAD4 (Q9UM07 whole entry): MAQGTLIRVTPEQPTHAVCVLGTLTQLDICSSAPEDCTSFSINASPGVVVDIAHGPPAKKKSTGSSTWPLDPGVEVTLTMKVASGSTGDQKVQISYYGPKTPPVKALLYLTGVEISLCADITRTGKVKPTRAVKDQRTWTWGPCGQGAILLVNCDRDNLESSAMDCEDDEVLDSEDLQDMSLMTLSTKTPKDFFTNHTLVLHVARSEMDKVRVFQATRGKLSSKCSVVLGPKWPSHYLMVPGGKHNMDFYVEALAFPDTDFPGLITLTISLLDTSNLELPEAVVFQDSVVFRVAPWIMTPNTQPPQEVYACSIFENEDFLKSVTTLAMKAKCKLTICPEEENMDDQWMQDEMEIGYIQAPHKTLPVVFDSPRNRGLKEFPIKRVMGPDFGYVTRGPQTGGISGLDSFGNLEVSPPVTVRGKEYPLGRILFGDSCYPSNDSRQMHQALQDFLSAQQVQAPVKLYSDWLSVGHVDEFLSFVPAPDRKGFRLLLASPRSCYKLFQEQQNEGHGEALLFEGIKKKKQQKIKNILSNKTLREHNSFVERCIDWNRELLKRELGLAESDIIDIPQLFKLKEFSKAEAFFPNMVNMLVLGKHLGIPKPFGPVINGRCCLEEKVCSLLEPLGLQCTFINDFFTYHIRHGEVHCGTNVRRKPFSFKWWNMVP

First: CN(C)c1ccc2cc(C(=O)N[C@@H](CCCNC(=N)CF)c3ncc(-c4cccc(F)c4)o3)ccc2c1 [EX-8, (S)-6-(Dimethylamino)-N-(4-(2-fluoroacetimidamido)-1-(5-(3-fluorophenyl)oxazol-2-yl)butyl)-2-naphthamide]
Second: CN(C)c1ccc2cc(C(=O)N[C@@H](CCCNC(=N)CF)c3ncc(-c4ccccc4)o3)ccc2c1 [EX-4, (S)-6-(Dimethylamino)-N-(4-(2-fluoroacetimidamido)-1-(5-phenyloxazol-2-yl)butyl)-2-naphthamide]
The IC50 of the first is higher: > 500 nM for the first, 200 to 500 nM for the second. The second is the more potent here.

`Cc1cccc(-c2cnc([C@H](CCCNC(=N)CF)NC(=O)c3c(F)cccc3F)o2)c1` [EX-32, (S)-2,6-Difluoro-N-(4-(2-fluoroacetimidamido)-1-(5-(m-tolyl)oxazol-2-yl)butyl)benzamide] and `N=C(CF)NCCC[C@H](NC(=O)c1c(F)cccc1Cl)c1ncc(-c2cccc(Cl)c2)o1` [EX-35, (S)-2-Chloro-N-(1-(5-(3-chlorophenyl)oxazol-2-yl)-4-(2-fluoroacetimidamido)butyl)-6-fluorobenzamide] fall in the same range of IC50: 200 to 500 nM for the first, 200 to 500 nM for the second.

First: COc1cccc(OC)c1C(=O)N[C@@H](CCCNC(=N)CF)c1nc(-c2ccc(Cl)cc2)no1 [EX-40]
Second: COc1cccc(Cl)c1C(=O)N[C@@H](CCCNC(=N)CF)c1ncc(-c2ccc(Cl)cc2)o1 [EX-22, (S)-2-chloro-N-(1-(5-(4-chlorophenyl)oxazol-2-yl)-4-(2-fluoroacetimidamido)butyl)-6-methoxybenzamide]
The IC50 of the first is higher: > 500 nM for the first, 200 to 500 nM for the second.

First: COc1cc2c(OC)cccc2cc1C(=O)N[C@@H](CCCNC(=N)CF)c1ncc(-c2ccccc2)o1 [EX-10]
Second: COc1cc2c(OC)cccc2cc1C(=O)N[C@@H](CCCNC(=N)CF)c1ncc(-c2cccc(F)c2)o1 [EX-14, (S)-N-(4-(2-Fluoroacetimidamido)-1-(5-(3-fluorophenyl)oxazol-2-yl)butyl)-3,5-dimethoxy-2-naphthamide]
The IC50 of the first is lower: < 200 nM for the first, 200 to 500 nM for the second. The first is the more potent here.

First: COc1cc2c(OC)cccc2cc1C(=O)N[C@@H](CCCNC(=N)CF)c1ncc(C)o1 [EX-12, (S)-N-(4-(2-fluoroacetimidamido)-1-(5-methyloxazol-2-yl)butyl)-3,5-dimethoxy-2-naphthamide]
Second: COc1cc2c(OC)cccc2cc1C(=O)N[C@@H](CCCNC(=N)CF)c1ncc(C2CCCC2)o1 [EX-11, (S)-N-(1-(5-Cyclopentyloxazol-2-yl)-4-(2-fluoroacetimidamido)butyl)-3,5-dimethoxy-2-naphthamide]
The IC50 of the first is higher: > 500 nM for the first, 200 to 500 nM for the second.

`COc1ccccc1C(=O)N[C@@H](CCCNC(=N)CF)c1ncc(-c2ccccc2)[nH]1` [EX-37, (S)—N-(4-(2-fluoroacetimidamido)-1-(5-phenyl-1H-imidazol-2-yl)butyl)-2-methoxybenzamide] and `COc1ccc(N2CCOCC2)cc1C(=O)N[C@@H](CCCNC(=N)CF)c1ncc(-c2ccccc2)o1` [EX-17, (S)-N-(4-(2-Fluoroacetimidamido)-1-(5-phenyloxazol-2-yl)butyl)-2-methoxy-5-morpholinobenzamide] cannot be ordered by IC50: > 500 nM for the first, > 500 nM for the second.

Compared with `COc1cccc(OC)c1C(=O)N[C@@H](CCCNC(=N)CF)c1ncc(-c2ccccc2Cl)o1` [EX-21, (S)-N-(1-(5-(2-Chlorophenyl)oxazol-2-yl)-4-(2-fluoroacetimidamido)butyl)-2,6-dimethoxybenzamide], `COc1cccc(Cl)c1C(=O)N[C@@H](CCCNC(=N)CF)c1ncc(-c2ccccc2Cl)o1` [EX-26, (S)-2-Chloro-N-(1-(5-(2-chlorophenyl)oxazol-2-yl)-4-(2-fluoroacetimidamido)butyl)-6-methoxybenzamide] is higher in IC50: < 200 nM for the first, 200 to 500 nM for the second. The first is the more potent here.

First: COc1cccc(Cl)c1C(=O)N[C@@H](CCCNC(=N)CF)c1ncc(-c2cc(F)cc(F)c2)o1 [EX-25, (S)-2-Chloro-N-(1-(5-(3,5-difluorophenyl)oxazol-2-yl)-4-(2-fluoroacetimidamido)butyl)-6-methoxybenzamide]
Second: COc1cccc(Cl)c1C(=O)N[C@@H](CCCNC(=N)CF)c1ncc(-c2cccc(C(F)(F)F)c2)o1 [EX-27, (S)-2-Chloro-N-(4-(2-fluoroacetimidamido)-1-(5-(3-(trifluoromethyl)phenyl)oxazol-2-yl)butyl)-6-methoxybenzamide]
The IC50 of the first is lower: 200 to 500 nM for the first, > 500 nM for the second.
